Experimental data: EP0907658B1 (PRINCE OF WALES MEDICAL RESEARCH INSTITUTE LIMITED, priority 1996, dated 2004)
Ends that are not written are not given here.

Assays:
[1] = system: neuropeptide Y Y2 (prejunctional); conditions: studies in vivo; cited from earlier work
[2] = system: neuropeptide Y Y1 receptor; conditions: studies in vivo; cited from earlier work
[3] = target: Y2-like receptors; experiment: Inhibition of the increase in pulse interval evoked by vagus nerve stimulation in anaesthetised rats (prejunctional activity); format: in vivo; conditions: for EC50 ΔP1%: change in pulse interval, anaesthetised rats, intravenous peptide; for in vivo activity at Y2 receptors (potency as inhibitor of the effect of vagal stimulation on heart rate): compared with Ac[L28,L31]NPY24-36
Procedure: (§1) Experiments were carried out on adult rats (Wistar) of both sexes (250-350g), anaesthetised with sodium pentobarbitone (Nembutal, Boehringer-Ingleheim; 60 mg/kg, i.p.). The trachea was cannulated and the animal artificially ventilated. The femoral vein was cannulated for administration of peptides and further doses of anaesthetic. The left femoral artery was cannulated to record arterial pressure. Both vagus nerves were cut. […] The frequency was chosen to increase pulse interval by approximately 100 ms, a submaximal effect on this variable. The electrocardiogram was measured using needle electrodes and monitored on one channel of an osciloscope. Pulse interval (the period between successive beats of the heart) was recorded beat-by-beat by triggering from ECG. Pulse interval and arterial pressure were recorded on the pen recorder.
Dose-response curves were constructed from group data for all rats. Because of the long time-course of action of the peptides tested, not all peptides were given to each rat. Usually however, each rat received neuropeptide Y and two other peptides.
(§2) As an indication of prejunctional activity two parameters were measured; the maximum percent inhibition of the increase in pulse interval evoked by stimulation of the vagus nerve following injection of peptide and the time to half recovery of this effect (T50). For pressor action, an indicator of postjunctional activity, two parameters were also measured; the peak pressor response following injection of peptide and the duration of the increase in blood pressure. These indices give a reliable measure of the actions of a peptide at pre-and postjunctional sites, and have been used previously in this laboratory for this purpose; Potter et al., 1989; Potter et al., 1991). Results were analysed using a one-way ANOVA.

[4] = system: human Y2 receptor; experiment: [125I]NPY receptor binding assay on SMS-MSN cells; conditions: for IC50: SMS-MSN cells, 30 pM [125I]NPY
Procedure: SK-N-MC cells expressing the human Y1 receptor and SMS-MSN cells expressing the human Y2 receptor were obtained from the ATCC. They were cultured in 1:1 DMEM:Ham's F12 medium (ICN) containing 10% fetal calf serum, 0.1% non-essential amino acids, 0.2 mM glutamine, and 0.056% sodium bicarbonate. Confluent cells were harvested in scraping and pellets were stored at -80°C. On the day of use cells were thawed, washed once in binding buffer salts, passed several times through a 22 ga. needle, and the protein content was assayed using bicinchoninic acid (BCA kit, Pierce).
Just before use, plates were filtered and washed twice with 50 mM Tris-HCI pH 7.4 / 0.1% BSA. […] Binding was terminated by filtration. […] Specific binding was analysed by nonlinear regression using a single-site fitting function (Graphpad Prism). Nonspecific binding was defined by binding in the presence of 1 µM competitor.

[5] = system: neuropeptide Y Y2 receptor subtype; conditions: SMS-KAN cells; cited from earlier work
[6] = system: neuropeptide Y Y1 receptor type; conditions: SK-N-MC cells; cited from earlier work
[7] = system: human neuropeptide Y Y1 receptor; conditions: Y1 receptor expressed in fibroblast cells; cited from earlier work
[8] = system: Y1 receptors; experiment: Pressor response (blood pressure increase) after peptide injection in anaesthetised rats (postjunctional activity); format: in vivo
Procedure: as §1, with “The” for “The frequency was chosen to increase pulse interval by approximately 100 ms, a submaximal effect on this variable. The”
Dose-response curves were constructed from group data for all rats. Because of the long time-course of action of the peptides tested, not all peptides were given to each rat.
as §2, with “These indices give a reliable measure of the actions of a peptide at pre-and postjunctional sites, and have been used previously in this laboratory for this purpose; Potter et al., 1989; Potter et al., 1991).” left out

[9] = system: transmitter release from renal nerves; experiment: Kidney blood flow: increase of renal vascular resistance elicited by renal nerve stimulation; format: in vivo, dogs; conditions: 40 nmol dose; Figure 1
Procedure: Experiments were carried out in six, adult, mongrel dogs of both sexes weighing between 18 and 26 kg. The dogs were anaesthetised with a bolus injection of sodium pentobarbitone (36 mg/kg intravenous; Nembutal, Boehringer Ingelheim) and then maintained on an infusion (2-3 mg/kg/hr). The animal was artificially ventilated, maintained at constant temperature and blood pressure and heart rate were monitored continuously.
The left kidney was exposed retroperitoneally and renal arterial blood flow was monitored continuously (Pernow & Lundberg, 1989a), using a transonic flow probe (Transonic System Inc., N.Y.). Postganglionic nerves to the kidney were isolated, cut and placed over bipolar, platinum electrodes for stimulation (1-10 Hz, 5-10 V, 1-5 msec).
The renal nerve was stimulated over a range of frequencies (1-10 Hz) for 30 secs and a frequency-response curve constructed. The responses were measured at the peak change in flow. […] Responses were reported as change in vascular resistance.

## (Leu^17, Glu^19, Ala^21, Ala^22, Glu^23, Leu^28, Leu^31) neuropeptide Y-(13-36) [ANA neuropeptide Y-(13-36)]
[1]
  prejunctional activity: prejunctional activity equivalent to the whole neuropeptide Y molecule
[2]
  pressor activity: retained significant pressor activity

## Ac[L28,I30]NPY24-36 (Ac-LRHYLNIITRQRY; ends and bridges not checked; UniProt P01303 52-64, looked up, variant I28L L30I)
[3]
  EC50 ΔP1%: 1.26 nmol

## Ac-LRAYLNLLTRQRY-NH2 [Ac[A26,L28,L31]NPY24-36]
[3]
  EC50 ΔP1%: 1.26 nmol

## Ac-ARAALNAATRQRY-NH2 [Ac[A24,26,27,30,31,L28]NPY24-36]
[3]
  EC50 ΔP1%: 0.56 nmol
  in vivo activity at Y2 receptors (potency as inhibitor of the effect of vagal stimulation on heart rate): enhanced in vivo activity at Y2 receptors

## Ac-LAHYLNLLTRQRY-NH2 [Ac[A25,L28,L31]NPY24-36]
[3]
  EC50 ΔP1%: 1.58 nmol
[4]
  IC50: 2 nM

## Ac[A26,A27,L28,L31]NPY24-36 (Ac-LRAALNLLTRQRY; ends and bridges not checked; UniProt P01303 52-64, looked up, variant H26A Y27A I28L I31L) [Ac[A26,27,L28,31]NPY24-36]
[3]
  in vivo activity at Y2 receptors (potency as inhibitor of the effect of vagal stimulation on heart rate): enhanced in vivo activity at Y2 receptors

## Ac-ARHYLNLLTRQRY-NH2 [Ac[A24,L28,L31]NPY24-36]
[3]
  EC50 ΔP1%: 0.46 nmol

## Ac-LRHYLNLLTRQRY-NH2 [Ac[L28,L31]NPY24-36]
[3]
  EC50 ΔP1%: 3.16 nmol
[4]
  IC50: 3.9 nM
[5]
  affinity for the neuropeptide Y Y2 receptor subtype: significant affinity
[6]
  affinity for the neuropeptide Y Y1 receptor type: no affinity
[7]
  increase in cytosolic calcium: did hot stimulate

## Ac-LRHALNLLTRQRY-NH2 [Ac[A27,L28,L31]NPY24-36]
[3]
  EC50 ΔP1%: 0.52 nmol

## Ac-LRHYLNLLARQRY-NH2 [Ac[L28,L31,A32]NPY24-36]
[3]
  EC50 ΔP1%: 6.46 nmol

## Ac-ARHALNLLTRQRY-NH2 [Ac[A24,A27,L28,L31]NPY24-36, Ac[Ala24, Ala27, Leu28, Leu31]NPY(24-36)]
[3]
  EC50 ΔP1%: 0.89 nmol
  in vivo activity at Y2 receptors (potency as inhibitor of the effect of vagal stimulation on heart rate): enhanced in vivo activity at Y2 receptors
[8]; 40 nmol dose, Table 1
  direct effect on the circulation: exerted no direct effect on the circulation
[4]; in words
  affinity for NPY Y2 receptors: high affinity for NPY Y2 receptors
[9]
  inhibition of the increase of renal vascular resistance elicited by renal nerve stimulation: almost completely inhibited the effect of nerve stimulation

## Ac-LRHYANLLTRQRY-NH2 [Ac[A28,L31]NPY24-36]
[3]
  EC50 ΔP1%: 2.75 nmol

## AcNPY 24-36
[8]; anaesthetised rats, †: No response to 10 nmole dose
  Increase in BP (rel to NPY): Of

## Neuropeptide Y [NPY]
[8]; in vivo in rats, at the doses tested
  change of blood pressure: raised blood pressure significantly in a dose-dependent manner

## Ac-LAHYRNLLTRQRY-NH2 [Ac[A25,R28,L31]NPY24-36]
[3]
  EC50 ΔP1%: 1.95 nmol

## Ac-LRHYLNLATRQRY-NH2 [Ac[L28,A31]NPY24-36]
[3]
  EC50 ΔP1%: 0.78 nmol

## Ac-LRHYLALLTRQRY-NH2 [Ac[L28,A29,L31]NPY24-36]
[3]
  EC50 ΔP1%: 1.48 nmol

## Ac-LRHYLNALTRQRY-NH2 [Ac[L28,A30,L31]NPY24-36]
[3]
  EC50 ΔP1%: 0.39 nmol
